According to article PMC6774872 (Cancer research, 2019):
pIC50: −log10 of the molar value.

System: lactate dehydrogenase A (LDHA); measured as cellular LDH activity
Assay: LDH activity
Type: cell-based

Substance: NCI-737
- pIC50: ~7.00
